Test results taken from patent US5952204A, “β-fructofuranosidase, its preparation and uses” (priority 1995, dated 1999).

These compounds were tested on β-fructofuranosidase (assay: Inhibition of the enzyme activity by metal ions). Conditions: one mM metal ion.
Type: biochemical, Bacillus sp. V230 (FERM BP-5054)
Description: The activity of β-fructofuranosidase according to the present invention is assayed as follows: Add 0.2 ml of an enzyme solution to 5 ml of an aqueous solution (pH 6.0) consisting of 1.0 w/v % sucrose, 20 mM acetate buffer, and 5 mM calcium chloride. Incubate the mixture at 40° C. for 10 min, add the Somogyi copper solution to suspend the reaction, and assay the reducing power by the Somogyi-Nelson's method. As a control, provide an enzyme solution pre-heated to inactivate the enzyme at 100° C. for 10 min, and assay the reducing power similarly as above. One unit activity of the enzyme is defined as the amount of enzyme that increases the reducing power of 2 μmol glucose per minute when assayed on the above assay.
In accordance with the method used in the above assay for the enzyme activity, the influence of pH and temperature on the present β-fructofuranosidase activity was studied in the presence of or in the absence of 5 mM calcium chloride. […] The optimum pH of the enzyme was about 5.5-6.0 when incubated at 40° C. for 10 min both in the presence of and in the absence of calcium ion, while the optimum temperature of the enzyme was about 50° C. in the presence of calcium ion and about 45° C. in the absence of calcium ion when incubated at pH 6.0 for 10 min. The pH stability of the present enzyme was determined by incubating in 50 mM buffers with different pHs at 4° C. for 24 hours, and assaying the residual enzyme activity after adjusting the buffers to pH 6. The thermal stability of the enzyme was determined by incubating in 20 mM acetate buffers (pH 6.0) at different temperatures for an hour, and assaying the residual enzyme activity in each buffer after cooling the buffers. The results of pH and thermal stabilities of the present enzyme were respectively in FIGS. 3 and 4. The pH stability of the enzyme was about 5.0-8.0, and the thermal stability was about 45° C. […] One mM Cu^++, Pb^++, Fe^++, Fe^+++ or Hg^++ inhibited the enzyme activity.

Row | Compound | Inhibition of the enzyme activity
1 | [Hg+2] [Hg^++] | inhibited
2 | [Fe+2] [Fe^++] | inhibited
3 | [Fe+3] [Fe^+++] | inhibited
4 | [Pb+2] [Pb^++] | inhibited
5 | [Cu+2] [Cu^++] | inhibited

These compounds were tested on β-fructofuranosidase (assay: Substrate specificity (TLC)). Conditions: 2 w/v % substrate, 2 units/g substrate, 40° C., pH 5.5, 24 hours.
Type: biochemical, Bacillus sp. V230 (FERM BP-5054)
Description: A solution with a final concentration of 2 w/v % raffinose, erlose, stachyose, lactose, xylofructoside, maltose, cellobiose, lactose, inulin or laevan as a substrate was mixed with 2 units/g substrate of a β-fructofuranosidase obtained by the method in Experiment 2, and allowed to react enzymatically at 40° C. and pH 5.5 for 24 hours. The reaction mixture was subjected to thin layer chromatography (hereinafter abbreviated as "TLC") using "KIESEL GEL 60", an aluminum plate, 20×20 cm, commercialized by Merck & Co., Inc., NJ, USA, to confirm whether the enzyme acts on these saccharides. The solvent system used in the TLC consisted of 1-butanol, pyridine, and water (=7:3:1 by volume), and samples were developed once at ambient temperature. The saccharides comprising fructose units as constituent saccharides were colored by spraying a 0.5-N phosphoric acid solution containing 0.2 w/v % naphthoresorcinol and heating at 110° C. for about 5 min, while other saccharides were colored by spraying a methanol solution containing 20 w/v % sulfuric acid and heating at 110° C. for about 10 min.

Row | Compound | Action of the enzyme on the substrate (release of fructose)
6 | OC[C@H]1O[C@@H](O[C@H]2[C@H](O)[C@@H](O)[C@@H](O[C@]3(CO)O[C@H](CO)[C@@H](O)[C@@H]3O)O[C@@H]2CO)[C@H](O)[C@@H](O)[C@H]1O [lactosucrose] | acts on
7 | OC[C@H]1O[C@H](OC[C@H]2O[C@H](OC[C@H]3O[C@H](O[C@]4(CO)O[C@H](CO)[C@@H](O)[C@@H]4O)[C@H](O)[C@@H](O)[C@@H]3O)[C@H](O)[C@@H](O)[C@H]2O)[C@H](O)[C@@H](O)[C@H]1O [stachyose] | acts on
8 | OC[C@H]1O[C@@](CO)(O[C@H]2OC[C@@H](O)[C@H](O)[C@H]2O)[C@@H](O)[C@@H]1O [xylofructoside] | acts on
9 | laevan | does not act on
10 | OC[C@H]1O[C@@H](O[C@H]2[C@H](O)[C@@H](O)C(O)O[C@@H]2CO)[C@H](O)[C@@H](O)[C@@H]1O (some centres unmarked) [Cellobiose] | does not act on
11 | OC[C@H]1O[C@H](OC[C@H]2O[C@H](O[C@]3(CO)O[C@H](CO)[C@@H](O)[C@@H]3O)[C@H](O)[C@@H](O)[C@@H]2O)[C@H](O)[C@@H](O)[C@H]1O [Raffinose] | acts on
12 | OC[C@H]1O[C@@](CO)(O[C@H]2O[C@H](CO)[C@@H](O)[C@H](O)[C@H]2O)[C@@H](O)[C@@H]1O [sucrose] | acts on
13 | inulin | does not act on
14 | OC[C@H]1O[C@@H](O[C@H]2[C@H](O)[C@@H](O)C(O)O[C@@H]2CO)[C@H](O)[C@@H](O)[C@H]1O (some centres unmarked) [Lactose] | does not act on
15 | OC[C@H]1O[C@@](CO)(O[C@H]2O[C@H](CO)[C@@H](O[C@H]3O[C@H](CO)[C@@H](O)[C@H](O)[C@H]3O)[C@H](O)[C@H]2O)[C@@H](O)[C@@H]1O [erlose] | acts on
16 | OC[C@H]1O[C@H](O[C@H]2[C@H](O)[C@@H](O)[C@H](O)O[C@@H]2CO)[C@H](O)[C@@H](O)[C@@H]1O [Maltose] | does not act on

What follows are compounds tested on β-fructofuranosidase (assay: Acceptor specificity (TLC, sucrose as donor)). Conditions: summary of Table 1.
Type: biochemical, Bacillus sp. V230 (FERM BP-5054)
Description: A saccharide solution with a final concentration of 10%, which consists of one of the monosaccharides, oligosaccharides, and alcohols in Table 1, and an equal amount of sucrose as a donor, d.s.b., was mixed with 2 units/g sucrose of a purified β-fructofuranosidase obtained by the method in Experiment 2, and allowed to react enzymatically at 40° C. and pH 5.5 for 24 hours. The mixtures before the enzymatic reaction and the reaction mixtures after the enzymatic reaction were subjected to TLC similarly as in Experiment 4, and the saccharides were colored by spraying 0.5-N phosphoric acid containing 0.2 w/v % naphthoresorcinol and heating at 110° C. for about 5 min to check the formation of transferred saccharides.

Row | Compound | Transfer of fructosyl residue to the acceptor (in words)
17 | OC[C@@H](O)[C@H](O)[C@@H](O)CO [D-Xylitol] | effectively transfers
18 | OC[C@H]1O[C@H](OC[C@H]2O[C@H](O[C@H]3[C@H](O)[C@@H](O)C(O)O[C@@H]3CO)[C@H](O)[C@@H](O)[C@@H]2O)[C@H](O)[C@@H](O)[C@@H]1O (some centres unmarked) [Panose] | effectively transfers
19 | OC[C@H]1O[C@H](OC[C@H]2OC(O)[C@H](O)[C@@H](O)[C@@H]2O)[C@H](O)[C@@H](O)[C@@H]1O (some centres unmarked) [Isomaltose] | effectively transfers
20 | OC[C@@H](O)[C@@H](O)[C@H](O)[C@@H](O)CO [D-Sorbitol] | effectively transfers
21 | O=C[C@H](O)[C@@H](O)[C@H](O)CO [D-Xylose] | effectively transfers
22 | OC[C@H]1O[C@@H](O[C@H]2[C@H](O)[C@@H](O)C(O)O[C@@H]2CO)[C@H](O)[C@@H](O)[C@@H]1O (some centres unmarked) [Cellobiose] | effectively transfers
23 | OC[C@H]1O[C@H](O[C@H]2O[C@H](CO)[C@@H](O)[C@H](O)[C@H]2O)[C@H](O)[C@@H](O)[C@@H]1O [Trehalose] | effectively transfers
24 | OCC(O)CO [Glycerol] | effectively transfers
25 | OC[C@@H](O)[C@@H](O[C@H]1O[C@H](CO)[C@@H](O)[C@H](O)[C@H]1O)[C@H](O)[C@@H](O)CO [Maltitol] | effectively transfers
26 | OC[C@H]1O[C@H](OC[C@H]2OC(O)[C@H](O)[C@@H](O)[C@@H]2O)[C@H](O)[C@@H](O)[C@H]1O (some centres unmarked) [Melibiose] | effectively transfers
27 | O=C[C@H](O)[C@@H](O)[C@@H](O)[C@H](O)CO [D-Galactose] | effectively transfers
28 | OC[C@H]1O[C@@H](O[C@H]2[C@H](O)[C@@H](O)C(O)O[C@@H]2CO)[C@H](O)[C@@H](O)[C@H]1O (some centres unmarked) [Lactose] | effectively transfers
29 | OC[C@H]1O[C@H](O[C@H]2[C@H](O)[C@@H](O)[C@@H](O[C@H]3[C@H](O)[C@@H](O)C(O)O[C@@H]3CO)O[C@@H]2CO)[C@H](O)[C@@H](O)[C@@H]1O (some centres unmarked) [Maltotriose] | effectively transfers
30 | OCCO [Ethylene glycol] | effectively transfers
31 | OC[C@H]1O[C@H](O[C@H]2[C@H](O)[C@@H](O)[C@H](O)O[C@@H]2CO)[C@H](O)[C@@H](O)[C@@H]1O [Maltose] | effectively transfers

The compounds below were run on dd-strain mice (assay: Acute toxicity test, oral). Conditions: 7-week-old dd-strain mice.
Type: in vivo
Description: Using 7-week-old dd-strain mice, a powder rich in lactosucrose, obtained by the method in Example A-4 described later, was administered orally to the mice for acute toxicity test. No mouse died up to a dose of 15 g/kg mouse, and a higher dose test was impossible. […] Similarly as above, a powder rich in erlose obtained by the method in Example A-6 described later, a syrup rich in xylosylfructoside obtained by the method in Example A-8 described later, a syrup rich in fructosyltrehalose obtained by the method in Example A-11, or a syrup rich in isomaltosylfructoside obtained by the method in Example A-12 described later was orally administered to 7-week-old dd-strain mice for acute toxicity test. No mouse died up to a dose of 15 g/kg mouse, and a higher does test was impossible.

Row | Compound | Toxicity (in words)
32 | OC[C@H]1O[C@@H](O[C@H]2[C@H](O)[C@@H](O)[C@@H](O[C@]3(CO)O[C@H](CO)[C@@H](O)[C@@H]3O)O[C@@H]2CO)[C@H](O)[C@@H](O)[C@H]1O [lactosucrose] | relatively low in toxicity
